Experimental data from PMC8657982, “Overlap and Specificity in the Substrate Spectra of Human Monoamine Transporters and Organic Cation Transporters 1, 2, and 3” (International Journal of Molecular Sciences, 2021).

Assays:
OCT2 = molecular target: T1, OCT2 (Homo sapiens, UniProt O15244); test: Uptake into HEK293 cells overexpressing OCT2 (uptake ratio and concentration-dependent uptake); details: for Clint ± SEM: intrinsic clearance, quotient of vmax and Km
T1 sequence (O15244 1-555): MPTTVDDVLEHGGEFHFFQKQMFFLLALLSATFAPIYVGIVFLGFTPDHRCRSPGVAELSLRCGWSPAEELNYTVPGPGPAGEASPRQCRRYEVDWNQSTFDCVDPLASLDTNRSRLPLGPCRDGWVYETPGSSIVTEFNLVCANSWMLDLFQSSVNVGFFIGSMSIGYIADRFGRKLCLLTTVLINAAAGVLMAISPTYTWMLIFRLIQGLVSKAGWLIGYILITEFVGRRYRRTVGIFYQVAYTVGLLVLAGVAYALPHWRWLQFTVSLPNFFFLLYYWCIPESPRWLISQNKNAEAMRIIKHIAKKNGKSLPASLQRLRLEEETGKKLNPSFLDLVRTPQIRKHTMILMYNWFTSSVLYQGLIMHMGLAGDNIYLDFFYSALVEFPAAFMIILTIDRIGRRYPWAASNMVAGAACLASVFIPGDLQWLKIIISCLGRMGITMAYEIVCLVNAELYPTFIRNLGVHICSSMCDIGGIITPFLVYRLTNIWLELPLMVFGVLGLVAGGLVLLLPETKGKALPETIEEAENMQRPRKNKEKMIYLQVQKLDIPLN

OCT1 = molecular target: T2, OCT1 (Homo sapiens, UniProt O15245); test: Uptake into HEK293 cells overexpressing OCT1 (uptake ratio and concentration-dependent uptake); details: intrinsic clearance, quotient of vmax and Km
T2 sequence (O15245 1-554): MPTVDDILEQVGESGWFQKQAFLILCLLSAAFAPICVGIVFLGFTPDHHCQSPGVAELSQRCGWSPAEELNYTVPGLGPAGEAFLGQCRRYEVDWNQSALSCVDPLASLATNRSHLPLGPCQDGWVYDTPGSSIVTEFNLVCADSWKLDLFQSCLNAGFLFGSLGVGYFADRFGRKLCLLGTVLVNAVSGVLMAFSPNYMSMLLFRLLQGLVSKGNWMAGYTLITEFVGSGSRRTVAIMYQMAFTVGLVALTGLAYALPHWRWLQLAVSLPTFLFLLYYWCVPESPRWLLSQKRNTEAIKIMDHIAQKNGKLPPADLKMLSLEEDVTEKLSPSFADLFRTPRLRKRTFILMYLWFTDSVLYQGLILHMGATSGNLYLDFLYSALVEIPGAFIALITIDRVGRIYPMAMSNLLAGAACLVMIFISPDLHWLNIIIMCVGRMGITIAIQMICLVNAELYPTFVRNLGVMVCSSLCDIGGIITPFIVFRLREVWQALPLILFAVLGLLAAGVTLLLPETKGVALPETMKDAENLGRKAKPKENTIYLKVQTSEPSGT

NET = NET (Homo sapiens, UniProt P23975); test: Uptake into HEK293 cells overexpressing NET (uptake ratio and concentration-dependent uptake); details: intrinsic clearance, quotient of vmax and Km
DAT = DAT (Homo sapiens, UniProt Q01959); test: Uptake into HEK293 cells overexpressing DAT (uptake ratio and concentration-dependent uptake); details: for Clint ± SEM: intrinsic clearance, quotient of vmax and Km
OCT3 = molecular target: T3, OCT3 (Homo sapiens, UniProt O75751); test: Uptake into HEK293 cells overexpressing OCT3 (uptake ratio and concentration-dependent uptake); details: intrinsic clearance, quotient of vmax and Km
T3 sequence (O75751 1-556): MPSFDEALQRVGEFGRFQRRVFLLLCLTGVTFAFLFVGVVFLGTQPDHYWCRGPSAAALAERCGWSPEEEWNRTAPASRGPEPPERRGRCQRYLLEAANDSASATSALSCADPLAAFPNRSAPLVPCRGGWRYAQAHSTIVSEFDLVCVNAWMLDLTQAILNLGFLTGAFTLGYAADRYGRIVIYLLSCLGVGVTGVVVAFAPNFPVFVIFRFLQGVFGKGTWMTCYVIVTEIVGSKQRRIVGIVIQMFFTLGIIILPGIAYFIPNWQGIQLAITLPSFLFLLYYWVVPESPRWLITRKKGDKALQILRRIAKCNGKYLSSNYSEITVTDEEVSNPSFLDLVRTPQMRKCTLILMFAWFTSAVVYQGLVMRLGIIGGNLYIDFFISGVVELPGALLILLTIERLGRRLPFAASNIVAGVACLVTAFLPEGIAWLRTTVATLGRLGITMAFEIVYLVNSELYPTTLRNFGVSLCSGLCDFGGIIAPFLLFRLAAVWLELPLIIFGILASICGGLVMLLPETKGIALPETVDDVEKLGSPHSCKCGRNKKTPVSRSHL

SERT = SERT (Homo sapiens, UniProt P31645); test: Uptake into HEK293 cells overexpressing SERT (uptake ratio and concentration-dependent uptake); details: for Clint ± SEM: SERT, intrinsic clearance, quotient of vmax and Km;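 for Uptake Ratio by Transporter SERT: ratio of uptake in SERT cells over empty-vector control cells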;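 for all read-outs here: incubation at 37 °C, intracellular compound quantified by HPLC-MS/MS after cell lysis, uptake normalized to total protein measured by bicinchoninic acid assay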
[1] = substrate: N=C(N)NCc1cccc(I)c1; test: cells, lysate or membranes; details: concentration-dependent net uptake, Michaelis–Menten, pH 7.4
[2] = substrate: NCCc1c[nH]c2ccc(O)cc12; test: cells, lysate or membranes; details: concentration-dependent net uptake, Michaelis–Menten, pH 7.4
[3] = substrate: CNCCc1c[nH]c2ccc(O)cc12; test: cells, lysate or membranes; details: concentration-dependent net uptake, Michaelis–Menten, pH 7.4
[4] = concentration-dependent net uptake, Michaelis–Menten

Sequence of NET (P23975 whole entry): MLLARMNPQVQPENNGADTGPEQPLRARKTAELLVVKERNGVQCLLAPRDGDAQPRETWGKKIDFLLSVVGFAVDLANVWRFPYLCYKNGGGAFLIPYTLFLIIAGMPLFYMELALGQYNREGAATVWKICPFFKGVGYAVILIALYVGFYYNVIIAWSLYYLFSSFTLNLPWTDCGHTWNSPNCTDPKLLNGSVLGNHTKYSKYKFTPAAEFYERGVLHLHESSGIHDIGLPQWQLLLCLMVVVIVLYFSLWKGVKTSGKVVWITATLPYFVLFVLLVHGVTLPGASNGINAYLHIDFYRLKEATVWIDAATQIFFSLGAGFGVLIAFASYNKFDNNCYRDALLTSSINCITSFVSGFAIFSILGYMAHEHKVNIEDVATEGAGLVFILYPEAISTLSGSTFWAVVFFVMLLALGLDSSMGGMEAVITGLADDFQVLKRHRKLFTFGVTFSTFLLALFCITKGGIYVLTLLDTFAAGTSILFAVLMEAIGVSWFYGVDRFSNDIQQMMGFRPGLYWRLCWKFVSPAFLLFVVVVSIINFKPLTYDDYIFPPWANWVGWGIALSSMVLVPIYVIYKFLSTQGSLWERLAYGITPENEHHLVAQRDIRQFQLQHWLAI
Sequence of DAT (Q01959 whole entry): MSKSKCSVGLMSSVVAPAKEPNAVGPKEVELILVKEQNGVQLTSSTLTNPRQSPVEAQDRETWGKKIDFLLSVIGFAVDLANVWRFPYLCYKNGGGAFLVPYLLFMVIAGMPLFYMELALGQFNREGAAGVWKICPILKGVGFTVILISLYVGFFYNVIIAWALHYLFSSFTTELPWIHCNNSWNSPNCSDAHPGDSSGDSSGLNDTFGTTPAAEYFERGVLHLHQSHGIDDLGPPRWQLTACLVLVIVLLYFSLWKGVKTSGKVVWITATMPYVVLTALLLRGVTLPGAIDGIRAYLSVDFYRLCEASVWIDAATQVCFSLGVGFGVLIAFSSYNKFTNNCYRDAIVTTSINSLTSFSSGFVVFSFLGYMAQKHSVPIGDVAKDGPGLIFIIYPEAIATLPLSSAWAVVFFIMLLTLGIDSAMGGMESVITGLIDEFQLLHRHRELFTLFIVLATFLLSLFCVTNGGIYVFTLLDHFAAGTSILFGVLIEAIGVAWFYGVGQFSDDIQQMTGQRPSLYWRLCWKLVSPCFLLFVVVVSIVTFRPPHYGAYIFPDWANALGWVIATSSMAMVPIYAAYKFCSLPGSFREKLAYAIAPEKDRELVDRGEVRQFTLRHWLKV
Sequence of SERT (P31645 whole entry): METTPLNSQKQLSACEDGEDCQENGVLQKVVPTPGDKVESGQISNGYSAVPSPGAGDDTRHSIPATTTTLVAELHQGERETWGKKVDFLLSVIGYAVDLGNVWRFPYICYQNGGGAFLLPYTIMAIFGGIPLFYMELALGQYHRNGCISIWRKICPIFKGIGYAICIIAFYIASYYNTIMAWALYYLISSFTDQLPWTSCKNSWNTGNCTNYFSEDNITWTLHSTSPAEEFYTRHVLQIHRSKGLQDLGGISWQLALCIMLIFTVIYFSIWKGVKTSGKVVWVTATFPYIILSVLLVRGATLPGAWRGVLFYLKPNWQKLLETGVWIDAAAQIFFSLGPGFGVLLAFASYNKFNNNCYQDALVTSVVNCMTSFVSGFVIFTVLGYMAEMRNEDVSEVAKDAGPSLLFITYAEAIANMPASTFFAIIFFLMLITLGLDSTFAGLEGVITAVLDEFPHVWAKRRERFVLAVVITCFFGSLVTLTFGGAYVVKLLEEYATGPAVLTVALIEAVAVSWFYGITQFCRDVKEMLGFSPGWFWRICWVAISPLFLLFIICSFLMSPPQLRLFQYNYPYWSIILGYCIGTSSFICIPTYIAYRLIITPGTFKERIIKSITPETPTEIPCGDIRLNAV

## NC(N)=NCc1cccc(I)c1 [mIBG, meta-iodobenzylguanidine, reference compound]
OCT2
  Clint ± SEM: 152 ± 34.1 mL × g Protein^−1 × min^−1
OCT1
  Clint ± SEM: 138 ± 38.5 mL × g Protein^−1 × min^−1
NET
  Clint ± SEM: 284 mL × g Protein^−1 × min^−1
NET; listed as meta-iodobenzylguanidine
  Clint ± SEM: 284.6 ± 84.2 mL × g Protein^−1 × min^−1
DAT; [4]
  Vmax ± SEM: 2800 pmol × mg Protein^−1 × min^−1
DAT
  Clint ± SEM: 229 ± 33.8 mL × g Protein^−1 × min^−1
OCT3
  Clint ± SEM: 161 ± 35.7 mL × g Protein^−1 × min^−1
SERT
  Clint ± SEM: 38.2 ± 25.9 mL × g Protein^−1 × min^−1

## NCC(O)c1ccccc1 (centres unmarked) [Bisnorephedrine]
SERT
  Uptake Ratio by Transporter SERT: 1.45

## CNCCc1ccc(O)c(O)c1 [Deoxyepinephrine]
SERT
  Uptake Ratio by Transporter SERT: 13.89

## CNCC(O)c1ccccc1 (centres unmarked) [Halostachine]
SERT
  Uptake Ratio by Transporter SERT: 2.26

## COc1ccc2[nH]cc(CCN)c2c1 [5-Methoxy-Tryptamine]
SERT
  Uptake Ratio by Transporter SERT: 3.46

## CNCC(O)c1ccc(O)c(OC)c1 (centres unmarked) [Metanephrine]
SERT
  Uptake Ratio by Transporter SERT: 1.97

## CNCCc1ccc(O)cc1 [N-Methyl p-tyramine]
SERT
  Uptake Ratio by Transporter SERT: 2.46

## NCc1ccc(O)cc1 [4-Hydroxybenzylamine]
SERT
  Uptake Ratio by Transporter SERT: 1.55

## CNCC(O)c1ccc(O)cc1 (centres unmarked) [Synephrine]
SERT
  Uptake Ratio by Transporter SERT: 1.53

## COc1cc(C(O)CN)ccc1O (centres unmarked) [Normetanephrine]
SERT
  Uptake Ratio by Transporter SERT: 1.91

## CNCCc1c[nH]c2ccc(O)cc12 [N-Methyl serotonin]
OCT2; [4]
  Vmax ± SEM: 11,918 pmol × mg Protein^−1 × min^−1
OCT2
  Clint ± SEM: 46.93 mL × g Protein^−1 × min^−1
OCT1
  Clint ± SEM: 80.52 mL × g Protein^−1 × min^−1
OCT3
  Clint ± SEM: 9.68 mL × g Protein^−1 × min^−1
SERT
  Clint ± SEM: 337.7 mL × g Protein^−1 × min^−1

## C[n+]1ccc(-c2ccccc2)cc1 [MPP+, reference compound]
SERT
  Uptake Ratio by Transporter SERT: 50.42

## COc1cc(CCN)ccc1O [3-Methoxy-p-tyramine]
SERT
  Uptake Ratio by Transporter SERT: 4.45

## NCCc1c[nH]c2ccccc12 [Tryptamine]
SERT
  Uptake Ratio by Transporter SERT: 4.88
  Clint ± SEM: 22.0 mL × g Protein^−1 × min^−1

## NCCc1cccc(O)c1 [m-Tyramine]
SERT
  Uptake Ratio by Transporter SERT: 3.08

## NCCc1ccc(O)c(O)c1 [Dopamine]
DAT
  Clint ± SEM: 78.9 mL × g Protein^−1 × min^−1

## CN[C@@H]1CCc2[nH]c3ccc(C(N)=O)cc3c2C1 [(R)-Frovatriptan, reference compound]
SERT
  Clint ± SEM: 38.48 mL × g Protein^−1 × min^−1

## NC1CC1c1ccccc1 (centres unmarked) [Tranylcypromin, reference compound]
SERT
  Uptake Ratio by Transporter SERT: 2.37

## NC[C@H](O)c1ccc(O)c(O)c1 [(-)-Norepinephrine]
NET
  Clint ± SEM: 47.8 mL × g Protein^−1 × min^−1

## COc1ccc(CCN)cc1O [4-Methoxy-m-tyramine]
SERT
  Uptake Ratio by Transporter SERT: 3.86

## CN(C)CCc1ccc(O)cc1 [Hordenine]
SERT
  Uptake Ratio by Transporter SERT: 2.02

## CNCCc1ccccc1 [N-Methylphenylethylamine]
SERT
  Uptake Ratio by Transporter SERT: 2.29

B1: OCT2 (Homo sapiens) (protein)
chain: T1 sequence (O15244 1-555)
[1]; other: OCT2
  Km: 13.3 ± 2.4 µM
  Vmax: 0.00204 µmol/min/mg
  Vmax/Km: 152 µL/min/mg
[2]; other: OCT2
  Km: 685.6 µM
  Vmax: 31565 pmol × mg Protein^−1 × min^−1
[3]; other: OCT2
  Km: 253.9 ± 54.98 µM
  Vmax: 11918 pmol × mg Protein^−1 × min^−1

B2: OCT1 (Homo sapiens) (protein)
chain: T2 sequence (O15245 1-554)
[1]; other: OCT1
  Km: 16.6 ± 3.7 µM
  Vmax: 0.0023 µmol/min/mg
  Vmax/Km: 138 µL/min/mg
[2]; other: OCT1
  Km: 235.6 µM
  Vmax: 5161 pmol × mg Protein^−1 × min^−1
[3]; other: OCT1
  Km: 27.78 ± 9.19 µM
  Vmax: 2237 pmol × mg Protein^−1 × min^−1

B3: OCT3 (Homo sapiens) (protein)
chain: T3 sequence (O75751 1-556)
[1]; other: OCT3
  Km: 10.5 ± 1.9 µM
  Vmax: 0.00169 µmol/min/mg
  Vmax/Km: 161 µL/min/mg
[3]; other: OCT3
  Km: 18.78 ± 12.42 µM
  Vmax: 181.7 pmol × mg Protein^−1 × min^−1
